Test results published in ChEMBL document CHEMBL5724696, “Autophagy assay results for EUbOPEN Chemogenomics Library” (2024).

Legend:
Format in all cases: functional, Homo sapiens
[1] = system: TERT-RPE1; test: (§1) Here: values are normalized to the negative (DMSO; defined as 0% autophagy induction) and positive (250nM Torin1; mTOR inhibitor; defined as maximal inducer of autophagy = 100%) control compounds and represented as % of autophagy induction. […] The impact of autophagy induction on cells is complex and depends on the affected target. As such, the magnitude of a phenotype may not be equally mirrored in the %-value of autophagy induction and vice versa. The dynamics of the induction may indicate the mode of activation: e.g. activation via phosphorylation or a signaling cascade may occur fast, while activation via transcription factors may take considerably longer. […] Of note, treatment concentrations may be sub-optimal for specific compounds, leading to false negative annotations.; conditions: Culturing Media DMEM/F12 (1:1), 1 % Penicillin/Streptomycin, 10% Fetal bovin serum Add-On: No, Screening Media Control DMEM/F12 (1:1), Screening Media Samples DMEM/F12 (1:1)
[2] = system: U2OS; test: as §1; conditions: Culturing Media DMEM, 1 % Penicillin/Streptomycin, 10% Fetal bovin serum Add-On: No, Screening Media Control DMEM, Screening Media Samples DMEM
[3] = system: U2OS; test: as §1; conditions: Culturing Media DMEM, 1 % Penicillin/Streptomycin, 10% Fetal bovin serum Add-On: No, Screening Media Control DMEM, Screening Media Samples DMEM; remark: listed apart in the source
[4] = Compound Concentration 0.5 uM, Timepoint 12 hours
[5] = Compound Concentration 0.5 uM, Timepoint 24 hours
[6] = Compound Concentration 0.5 uM, Timepoint 36 hours
[7] = Compound Concentration 0.5 uM, Timepoint 60 hours
[8] = Compound Concentration 2 uM, Timepoint 12 hours
[9] = Compound Concentration 2 uM, Timepoint 24 hours
[10] = Compound Concentration 2 uM, Timepoint 36 hours
[11] = Compound Concentration 2 uM, Timepoint 60 hours
[12] = Compound Concentration 10 uM, Timepoint 12 hours
[13] = Compound Concentration 10 uM, Timepoint 24 hours
[14] = Compound Concentration 10 uM, Timepoint 36 hours
[15] = Compound Concentration 10 uM, Timepoint 60 hours

Structure (SMILES)	autophagy induction [1, 4] [%]	autophagy induction [1, 5] [%]	autophagy induction [1, 6] [%]	autophagy induction [1, 7] [%]	autophagy induction [1, 8] [%]	autophagy induction [1, 9] [%]	autophagy induction [1, 10] [%]	autophagy induction [1, 11] [%]	autophagy induction [1, 12] [%]	autophagy induction [1, 13] [%]	autophagy induction [1, 14] [%]	autophagy induction [1, 15] [%]	autophagy induction [2, 4] [%]	autophagy induction [2, 5] [%]	autophagy induction [2, 6] [%]	autophagy induction [2, 7] [%]	autophagy induction [2, 8] [%]	autophagy induction [2, 9] [%]	autophagy induction [2, 10] [%]	autophagy induction [2, 11] [%]	further results
CN(C)S(=O)(=O)c1ccc(NC(=S)N2CCC(C(O)(c3ccccc3)c3ccccc3)CC2)cc1	-8.089	-8.809	-7.846	-8.279	-6.98	-8.186	-8.002	-9.897	-4.6942	-5.029	-1.466	-2.059	-3.164	1.478	0.3125	1.161	-4.133	-2.924	-1.588	-1.351	autophagy induction [2, 12]: -4.693%; autophagy induction [2, 13]: -0.2636%; autophagy induction [2, 14]: 0.0362%; autophagy induction [2, 15]: -2.232%; autophagy induction [3, 4]: 4.873%; autophagy induction [3, 5]: 8.285%; autophagy induction [3, 6]: -1.545%; autophagy induction [3, 7]: -6.741%; autophagy induction [3, 8]: -9.723%; autophagy induction [3, 9]: -10.0932%; autophagy induction [3, 10]: -2.641%; autophagy induction [3, 11]: -5.443%; autophagy induction [3, 12]: -2.358%; autophagy induction [3, 13]: -3.276%; autophagy induction [3, 14]: -0.5558%; autophagy induction [3, 15]: -1.95%
CC(C)NC(=O)c1ccc(C#Cc2ccncc2)cn1	-8.654	-9.257	-14.0532	-16.4507	-4.036	-5.1239	-6.815	-8.286	1.565	2.778	9.008	16.9694	-9.113	-5.012	-3.818	-1.861	-10.7877	-3.358	-2.622	-1.746	autophagy induction [2, 12]: -0.7026%; autophagy induction [2, 13]: -0.9948%; autophagy induction [2, 14]: -1.134%; autophagy induction [2, 15]: -0.8185%; autophagy induction [3, 4]: 0.5322%; autophagy induction [3, 5]: 0.2252%; autophagy induction [3, 6]: -0.5555%; autophagy induction [3, 7]: 0.1744%; autophagy induction [3, 8]: 1.689%; autophagy induction [3, 9]: 1.76%; autophagy induction [3, 10]: 0.3174%; autophagy induction [3, 11]: -4.895%; autophagy induction [3, 12]: -23.095%; autophagy induction [3, 13]: -7.509%; autophagy induction [3, 14]: -0.1897%; autophagy induction [3, 15]: 10.5553%
